Reference: patent US10179141B2, “Certain chemical entities, compositions, and methods” (Suzhou NeuPharma Co., Ltd., priority 2010, dated 2019)
pIC50: −log10 of the molar value. Converted amounts (≈) assume the structure as drawn.

Experiments:
[1] = Measurement of equilibrium solubility in aqueous buffer (HPLC UV); format: physicochemical; conditions: aqueous NaOAc/AcOH buffer, thermodynamic from solid, NaOAc/AcOH buffer (100 mM, pH 5.0), shaken at rt for 24 h
Procedure: The equilibrium solubility of compounds is measured in aqueous buffer. Excess amount of solid compound is added into buffer solution and the sample is briefly sonicated and then shaken at rt for 24 h. The sample is filtered and the concentration is analyzed by HPLC UV. A standard solution at 0.2 mg/mL was prepared in methanol or acetonitrile for each compound and used as an external standard for quantification. Data for bufalin and four of the compounds specifically described herein in NaOAc/AcOH buffer (100 mM, pH 5.0) is shown below.

A549 cells = assay: Inhibition of cell growth in tumor cells, MTT assay, A549; format: cell-based; conditions: Homo sapiens, 72 h compound exposure
Procedure: (§1) Inhibition of cell growth by compounds was measured using MTT assay (Mosmann, T., Journal of Immunological Methods, 1983, 65, 55-63). Tumor cell lines were purchased from ATCC (American Type Culture Collection, Manassas, Va.). All cell lines were maintained in RPMI 1640 (Hyclone) supplemented with 10% fetal bovine serum (FBS, Hyclone), glutamine (2 mM, Hyclone), and antibiotics (penicillin 100 U/mL and streptomycin 50 μg/mL) at 37° C. in a humidified atmosphere of 5% CO2 in air. Taxol (positive control, Sigma) and compounds were dissolved in DMSO (Sigma), and the final concentration of DMSO in the medium was 1%. Tumor cells were plated in 96-well plates at densities from 4000 cells/well of a 96-well plate and allowed to adhere/grow for 24 h. They were then treated with various concentrations of drug for 72 h. 3-(4,5-Dimethylthiazol-2-yl)-2,5-diphenyltetrazolium bromide (MTT, Sigma) was used to determine the number of viable cells at the time of compound addition and the number of cells remaining after 72 h compound exposure. The number of cells remaining after 72 h was compared to the number of viable cells at the time of compound addition by measuring the absorbance at 570 nm, allowing for the calculation of growth inhibition.
(§2) All concentrations of compounds were tested in triplicate and controls were averaged over 4 wells. IC50 was calculated by plotting the concentration of compound vs the percentage of inhibition in treated wells using GraphPad Prism 5.

Bcap-37 cells = assay: Inhibition of cell growth in tumor cells, MTT assay, Bcap-37; format: cell-based; conditions: Homo sapiens, Bcap37, 72 h compound exposure
Procedure: as §1, §2

tumor xenografts = assay: Inhibition of tumor growth in xenograft model; format: in vivo, BALB/c female nude mice; conditions: 10 mg/kg, Q4D × 3, i.v.
Procedure: Cells were implanted in BALB/c female nude mice and grown as tumor xenografts. When tumors achieved 150-200 mm^3, mice were assigned into treatment and control groups using randomized block design based upon their tumor volumes. Each group contained 10 tumor-bearing mice. Tumors were measured twice weekly in two dimensions using a caliper, and the tumor volume was calculated from two-dimensional measurements using the equation V=0.5×a×b^2 where a and b are the long and short diameters of the tumor, respectively. The tumor volume was then used for calculations of T/C values. The T/C value was an indication of antitumor effectiveness; T and C were the mean volume of the treated and control groups, respectively, on a given day.

SMILES | solubility at 24 h [1] | pIC50 (A549 cells) | pIC50 (Bcap-37 cells) | also measured
C[C@]12CC[C@H](OC(=O)NCCN3CCCC3)C[C@H]1CC[C@@H]1[C@@H]2CC[C@]2(C)[C@@H](c3ccc(=O)oc3)CC[C@]12O [(3S,5R,8R,9S,10S,13R,14S,17R)-14-hydroxy-10,13-dimethyl-17-(2-oxo-2H-pyran-5-yl)hexadecahydro-1H-cyclopenta[a]phenanthren-3-yl (2-(pyrrolidin-1-yl)ethyl)carbamate] | 1040 µg/mL (≈ 1970 µM) | 8.55 | 8.28 | –
C[C@]12CC[C@H](OC(=O)NCCCC(=O)O)C[C@H]1CC[C@@H]1[C@@H]2CC[C@]2(C)[C@@H](c3ccc(=O)oc3)CC[C@]12O [4-(((((3S,5R,8R,9S,10S,13R,14S,17R)-14-hydroxy-10,13-dimethyl-17-(2-oxo-2H-pyran-5-yl)hexadecahydro-1H-cyclopenta[a]phenanthren-3-yl)oxy)carbonyl)amino)butanoic Acid] | – | 7.22 | – | –
C[C@]12CC[C@H](OC(=O)NCCN3CCOCC3)C[C@H]1CC[C@@H]1[C@@H]2CC[C@]2(C)[C@@H](c3ccc(=O)oc3)CC[C@]12O [(3S,5R,8R,9S,10S,13R,14S,17R)-14-hydroxy-10,13-dimethyl-17-(2-oxo-2H-pyran-5-yl)hexadecahydro-1H-cyclopenta[a]phenanthren-3-yl (2-morpholinoethyl)carbamate] | – | 8.13 | – | –
CC(C)[C@H](N)C(=O)O[C@H]1CC[C@@]2(C)[C@H](CC[C@@H]3[C@@H]2CC[C@]2(C)[C@@H](c4ccc(=O)oc4)CC[C@]32O)C1 [(S)-(3S,5R,8R,9S,10S,13R,14S,17R)-14-hydroxy-10,13-dimethyl-17-(2-oxo-2H-pyran-5-yl)hexadecahydro-1H-cyclopenta[a]phenanthren-3-yl 2-amino-3-methylbutanoate] | 120 µg/mL (≈ 247 µM) | – | 7.31 | –
C[C@]12CC[C@H](OC(=O)N3CCOCC3)C[C@H]1CC[C@@H]1[C@@H]2CC[C@]2(C)[C@@H](c3ccc(=O)oc3)CC[C@]12O [(3S,5R,8R,9S,10S,13R,14S,17R)-14-hydroxy-10,13-dimethyl-17-(2-oxo-2H-pyran-5-yl)hexadecahydro-1H-cyclopenta[a]phenanthren-3-yl morpholine-4-carboxylate] | – | – | 6.65 | –
C[C@]12CC[C@H](OC(=O)OCCN3CCOCC3)C[C@H]1CC[C@@H]1[C@@H]2CC[C@]2(C)[C@@H](c3ccc(=O)oc3)CC[C@]12O [(3S,5R,8R,9S,10S,13R,14S,17R)-14-hydroxy-10,13-dimethyl-17-(2-oxo-2H-pyran-5-yl)hexadecahydro-1H-cyclopenta[a]phenanthren-3-yl (2-morpholinoethyl) carbonate] | – | 7.91 | – | –
C[C@]12CCC(O)C[C@H]1CC[C@@H]1[C@@H]2CC[C@]2(C)[C@@H](c3ccc(=O)oc3)CC[C@]12O (some centres unmarked) [Bufalin, reference compound] | 41 µg/mL (≈ 106 µM) | 8.36 | 7.85 | –
C[C@@H](N)C(=O)O[C@H]1CC[C@@]2(C)[C@H](CC[C@@H]3[C@@H]2CC[C@]2(C)[C@@H](c4ccc(=O)oc4)CC[C@]32O)C1 [(R)-(3S,5R,8R,9S,10S,13R,14S,17R)-14-hydroxy-10,13-dimethyl-17-(2-oxo-2H-pyran-5-yl)hexadecahydro-1H-cyclopenta[a]phenanthren-3-yl 2-aminopropanoate] | – | 8.47 | – | –
CC(=O)O[C@H]1C(=O)[C@@]2(C)[C@H]([C@H](OC(=O)c3ccccc3)[C@]3(O)C[C@H](OC(=O)[C@H](O)[C@@H](NC(=O)c4ccccc4)c4ccccc4)C(C)=C1C3(C)C)[C@]1(OC(C)=O)CO[C@@H]1C[C@@H]2O [Paclitaxel] | – | – | – | T/C (tumor xenografts; mean tumor volume treated/control): 74.6%; Tumor Volume Post-treatment (tumor xenografts; nude mouse xenograft): 391 ± 43 mm^3
CC(C)C[C@@H](N)C(=O)O[C@H]1CC[C@@]2(C)[C@H](CC[C@@H]3[C@@H]2CC[C@]2(C)[C@@H](c4ccc(=O)oc4)CC[C@]32O)C1 [(R)-(3S,5R,8R,9S,10S,13R,14S,17R)-14-hydroxy-10,13-dimethyl-17-(2-oxo-2H-pyran-5-yl)hexadecahydro-1H-cyclopenta[a]phenanthren-3-yl 2-amino-4-methylpentanoate] | – | 7.23 | – | –
CC(C)C[C@H](N)C(=O)O[C@H]1CC[C@@]2(C)[C@H](CC[C@@H]3[C@@H]2CC[C@]2(C)[C@@H](c4ccc(=O)oc4)CC[C@]32O)C1 [(S)-(3S,5R,8R,9S,10S,13R,14S,17R)-14-hydroxy-10,13-dimethyl-17-(2-oxo-2H-pyran-5-yl)hexadecahydro-1H-cyclopenta[a]phenanthren-3-yl 2-amino-4-methylpentanoate] | – | 7.82 | – | –
C[C@]12CC[C@H](OC(=O)N3CCNCC3)C[C@H]1CC[C@@H]1[C@@H]2CC[C@]2(C)[C@@H](c3ccc(=O)oc3)CC[C@]12O [(3S,5R,8R,9S,10S,13R,14S,17R)-14-hydroxy-10,13-dimethyl-17-(2-oxo-2H-pyran-5-yl)hexadecahydro-1H-cyclopenta[a]phenanthren-3-yl piperazine-1-carboxylate] | 840 µg/mL (≈ 1680 µM) | 8.74 | – | –
C[C@]12CC[C@H](OC(=O)OCCN3CCCC3)C[C@H]1CC[C@@H]1[C@@H]2CC[C@]2(C)[C@@H](c3ccc(=O)oc3)CC[C@]12O [(3S,5R,8R,9S,10S,13R,14S,17R)-14-hydroxy-10,13-dimethyl-17-(2-oxo-2H-pyran-5-yl)hexadecahydro-1H-cyclopenta[a]phenanthren-3-yl (2-(pyrrolidin-1-yl)ethyl) carbonate] | 710 µg/mL (≈ 1350 µM) | – | 7.97 | –
C[C@H](N)C(=O)O[C@H]1CC[C@@]2(C)[C@H](CC[C@@H]3[C@@H]2CC[C@]2(C)[C@@H](c4ccc(=O)oc4)CC[C@]32O)C1 [(S)-(3S,5R,8R,9S,10S,13R,14S,17R)-14-hydroxy-10,13-dimethyl-17-(2-oxo-2H-pyran-5-yl)hexadecahydro-1H-cyclopenta[a]phenanthren-3-yl 2-aminopropanoate] | – | – | 7.80 | –
CC(C)[C@@H](N)C(=O)O[C@H]1CC[C@@]2(C)[C@H](CC[C@@H]3[C@@H]2CC[C@]2(C)[C@@H](c4ccc(=O)oc4)CC[C@]32O)C1 [(R)-(3S,5R,8R,9S,10S,13R,14S,17R)-14-hydroxy-10,13-dimethyl-17-(2-oxo-2H-pyran-5-yl)hexadecahydro-1H-cyclopenta[a]phenanthren-3-yl 2-amino-3-methylbutanoate] | – | 6.83 | – | –
